MIC data for 1 molecule are collected here from patent US5041567A, “Antibacterial monic acid derivatives” (Beecham Group plc, priority 1982, dated 1991).

Converted amounts (≈) assume the structure as drawn. Some results are limits rather than exact numbers.

One test has as its system M. suipneumoniae NB12. Briefly: MIC against mycoplasma in vitro. The test is classed as cell-based. As to conditions: Mesomycoplasma hyopneumoniae, NB12, 144 h.
Another test has as its system M. suipneumoniae JF 435. The test is described as follows: MIC against mycoplasma in vitro. The test is classed as cell-based. The note with it: Mesomycoplasma hyopneumoniae, JF435, 144 h; M. suipneumoniae JF 435; 6 days, 37° C.; read-out: MIC.
A further test concerns M. suipneumoniae Str. 11. The test is described as follows: MIC against mycoplasma in vitro. The test is classed as cell-based. As to conditions: Mesomycoplasma hyopneumoniae, 144 h; M. suipneumoniae Str. 11; 6 days, 37° C.; read-out: MIC.
The subject of test [1] is M. suipneumoniae J2206/183^b. Briefly: MIC against mycoplasma in vitro. In kind it is cell-based. The note with it: Mesomycoplasma hyopneumoniae, 144 h.
For test [2], the system named is M. suipneumoniae NCTC 10110. Briefly: MIC against mycoplasma in vitro. As to conditions: Mesomycoplasma hyopneumoniae, NCTC10110, 144 h. In kind it is cell-based.
Test [3] has as its system M. hyosynoviae ATCC 25591. The test is described as follows: MIC against mycoplasma in vitro. In kind it is cell-based. The note with it: 144 h.
The subject of the next test is M. bovis NCTC 10131. The test is described as follows: microbe, parasite or virus in culture. As to conditions: NCTC10131, 144 h. In kind it is cell-based.
Test [4] relates to M. bovigenitalium ATCC 14173. The test is described as follows: MIC against mycoplasma in vitro. The test is classed as cell-based. The note with it: 144 h.
The test system of another test is M. gallisepticum S6. The test is described as follows: MIC against mycoplasma in vitro. The test is classed as cell-based. The note with it: Mycoplasmoides gallisepticum, S6, 144 h.
Another test concerns M. pneumoniae ATCC 15492. The test is described as follows: MIC against mycoplasma in vitro. In kind it is cell-based. As to conditions: Mycoplasmoides pneumoniae, ATCC15492, 144 h.
The test system of test [5] is Ps. aeruginosa NCTC 10662. The test is described as follows: MIC against human bacteria in vitro. In kind it is cell-based. As to conditions: Pseudomonas aeruginosa, NCTC10662; Ps. aeruginosa NCTC 10662; 5% chocolated horse blood agar, 18 hours; read-out: MIC.
In test [6] the test system is Haemophilus influenzae Wy21. Briefly: MIC against human bacteria in vitro. The test is classed as cell-based. As to conditions: Haemophilus influenzae Wy21; 5% chocolated horse blood agar, 18 hours; read-out: MIC.
The subject of test [7] is Strep. pyogenes R80/421-A. Briefly: MIC against human bacteria in vitro. In kind it is cell-based. As to conditions: Streptococcus pyogenes; Strep. pyogenes R80/421-A; 5% chocolated horse blood agar, 18 hours; read-out: MIC.
Another test relates to E. coli NCTC 10418. Briefly: MIC against veterinary bacteria in vitro. The note with it: Escherichia coli, NCTC10418, 18 h.
The next test relates to S. typhimurium S18. Briefly: MIC against veterinary bacteria in vitro. As to conditions: Salmonella enterica, TYPHIMURIUM, 18 h.
Another test deals with Past. haemolytica PA5. Briefly: MIC against veterinary bacteria in vitro. As to conditions: Mannheimia haemolytica, PA5, 18 h.
Test [8] deals with Erysipelothrix rhusiopathiae NCTC 8163. The test is described as follows: MIC against veterinary bacteria in vitro. As to conditions: Erysipelothrix rhusiopathiae, NCTC8163, 18 h.
Method: (§1) The activity of the compounds of the Examples against various veterinarily important bacteria, was assayed in vitro using two-fold serial dilutions in Diagnostic Sensitivity Test Agar inoculated with 10^4 organisms.
Test [9] has as its system Corynebacterium pyogenes CY1. Briefly: MIC against veterinary bacteria in vitro. As to conditions: CY1, 18 h.
Method: as §1
Test [10] deals with Staph. aureus 152 (pen. sens). The test is described as follows: MIC against veterinary bacteria in vitro. As to conditions: Staphylococcus aureus, 18 h.
Method: as §1
In the next test the test system is Staph. aureus Oxford. Briefly: MIC against veterinary bacteria in vitro. As to conditions: Staphylococcus aureus, 18 h.
The next test concerns Strep. uberis SPU1. Briefly: MIC against veterinary bacteria in vitro. The note with it: Streptococcus uberis, SPU1, 18 h.
The subject of a further test is B. subtilis ATCC 6633. The test is described as follows: MIC against veterinary bacteria in vitro. As to conditions: Bacillus subtilis, ATCC6633, 18 h.

Method for B. subtilis ATCC 6633: as §1
Method for E. coli NCTC 10418: as §1
Method for Past. haemolytica PA5: as §1
Method for S. typhimurium S18: as §1
Method for Staph. aureus Oxford: as §1
Method for Strep. uberis SPU1: as §1

As to `C/C(=C\c1ncc(-c2cccc([S+](C)[O-])c2)o1)C[C@@H]1OC[C@H](C[C@@H]2O[C@H]2[C@@H](C)[C@H](C)O)[C@@H](O)[C@H]1O` (stereo partly shown) [Example 25, 5-m-Methylsulphinylphenyl-2-(1-normon-2-yl)oxazole A], the MIC came out at 0.25 µg/mL (≈ 0.494 µM) in the test with M. suipneumoniae NB12; 0.5 µg/mL (≈ 0.989 µM) in the test on M. suipneumoniae JF 435; 0.5 µg/mL (≈ 0.989 µM) with M. suipneumoniae Str. 11; 1 µg/mL (≈ 1.98 µM) in test [1]; 1 µg/mL (≈ 1.98 µM) in [2]; 1 µg/mL (≈ 1.98 µM) in [3]. Also, the MIC against M. bovis NCTC 10131 is 0.025 µg/mL (≈ 0.0494 µM); in test [4] it was 0.25 µg/mL (≈ 0.494 µM); with M. gallisepticum S6 it was 2.5 µg/mL (≈ 4.94 µM); in the test with M. pneumoniae ATCC 15492 it was 2.5 µg/mL (≈ 4.94 µM); in [5] it was over 128 µg/mL; in test [6], 2 µg/mL (≈ 3.96 µM). The MIC in test [7] was 2 µg/mL (≈ 3.96 µM); in the test on E. coli NCTC 10418, over 80 µg/mL; in the test on S. typhimurium S18, over 80 µg/mL; in the test on Past. haemolytica PA5, 80 µg/mL (≈ 158 µM); in test [8], over 80 µg/mL; in test [9], over 80 µg/mL. Besides, the MIC is 10 µg/mL (≈ 19.8 µM) in test [10], 20 µg/mL (≈ 39.6 µM) in the test on Staph. aureus Oxford, 0.625 µg/mL (≈ 1.24 µM) against Strep. uberis SPU1 and 2.5 µg/mL (≈ 4.94 µM) in the test with B. subtilis ATCC 6633.
